Source: ChEMBL document CHEMBL1201862, “PubChem BioAssay data set” (2004)
Calls of active or inactive are those of the source.

Tests used:
[1] = A cytotoxicity screen of small molecule inhibitors of the PhoP region in Salmonella typhi identified in the primary screen. [Related pubchem assays: 1850, 1864, 1985 ]; assay type: functional
[2] = HeLa 2N DNA content increase, dose response, cell-based, IC50 (AID 1117349); assay type: functional
[3] = HeLa 4N DNA content increase, dose response, cell-based, IC50 (AID 1117351); assay type: functional
[4] = Luminescence Cell-Based Dose Retest to Confirm Inhibitors of Cancer Stem Cells. [Related pubchem assays (depositor defined):AID2717, AID2721]; assay type: functional; conditions: Homo sapiens
[5] = biological target: T1, Histone-lysine N-methyltransferase NSD2 (Homo sapiens, UniProt O96028); assay type: biochemical
T1 sequence (O96028 whole entry): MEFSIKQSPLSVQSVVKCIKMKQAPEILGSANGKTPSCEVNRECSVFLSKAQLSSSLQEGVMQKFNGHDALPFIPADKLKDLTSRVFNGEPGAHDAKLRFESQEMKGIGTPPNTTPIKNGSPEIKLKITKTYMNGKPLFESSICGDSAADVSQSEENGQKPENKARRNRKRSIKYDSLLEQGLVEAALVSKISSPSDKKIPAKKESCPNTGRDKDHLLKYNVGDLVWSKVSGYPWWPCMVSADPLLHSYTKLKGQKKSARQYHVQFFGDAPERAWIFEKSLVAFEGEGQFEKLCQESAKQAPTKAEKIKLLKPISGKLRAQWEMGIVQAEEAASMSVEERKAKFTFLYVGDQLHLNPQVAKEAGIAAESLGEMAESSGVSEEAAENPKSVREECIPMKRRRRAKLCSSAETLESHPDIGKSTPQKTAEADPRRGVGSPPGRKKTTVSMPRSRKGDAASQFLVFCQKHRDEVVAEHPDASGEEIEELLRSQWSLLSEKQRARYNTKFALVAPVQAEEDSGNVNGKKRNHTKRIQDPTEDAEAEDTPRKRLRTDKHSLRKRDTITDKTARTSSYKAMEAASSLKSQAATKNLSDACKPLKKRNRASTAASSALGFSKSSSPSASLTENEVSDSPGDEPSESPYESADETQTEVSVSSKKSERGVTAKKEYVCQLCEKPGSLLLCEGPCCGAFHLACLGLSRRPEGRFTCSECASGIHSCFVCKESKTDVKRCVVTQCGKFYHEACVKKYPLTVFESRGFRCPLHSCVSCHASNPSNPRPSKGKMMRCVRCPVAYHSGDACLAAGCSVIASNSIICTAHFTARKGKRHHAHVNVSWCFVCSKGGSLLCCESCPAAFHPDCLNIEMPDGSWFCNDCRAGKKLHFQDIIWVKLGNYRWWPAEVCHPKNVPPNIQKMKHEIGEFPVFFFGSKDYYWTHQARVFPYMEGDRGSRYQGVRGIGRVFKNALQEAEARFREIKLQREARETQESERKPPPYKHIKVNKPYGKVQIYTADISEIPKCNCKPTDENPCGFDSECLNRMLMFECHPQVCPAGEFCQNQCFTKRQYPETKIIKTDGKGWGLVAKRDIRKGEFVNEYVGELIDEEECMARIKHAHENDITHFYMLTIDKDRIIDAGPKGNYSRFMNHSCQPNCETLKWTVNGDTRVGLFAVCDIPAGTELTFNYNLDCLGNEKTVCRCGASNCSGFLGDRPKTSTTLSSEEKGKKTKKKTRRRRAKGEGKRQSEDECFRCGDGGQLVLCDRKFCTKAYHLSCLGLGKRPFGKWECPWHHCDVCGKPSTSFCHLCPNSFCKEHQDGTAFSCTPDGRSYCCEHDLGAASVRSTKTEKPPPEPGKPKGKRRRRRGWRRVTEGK

[6] = inhibitors of Vif binding to APOBEC3G peptide, primary screen, biochemical, TR-FRET, GST-Vif 1-94, biotin-A3G peptide, dose response retest (AID 1117319); assay type: functional;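 note: TR-FRET signal of purified GST-Vif binding a biotinylated A3G peptide; inhibitors lower the FRET signal by blocking Vif and A3G binding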
[7] = HEp-2 cell cytotoxicity, dose response, cytotoxicity control for RSV inhibitor project, HTS (AID 2410); assay type: functional; conditions: human respiratory syncytial virus
[8] = test system: Streptococcus sp. 'group A'; assay: growth inhibition of control SK(-) GAS strain, dose response, counter-screen for streptokinase expression inhibitor project, luminescence, kanamycin, BacTiterGlo, confirmation (AID 1900); assay type: functional, organism-based
[9] = biological target: T2, Streptokinase A (Streptococcus pyogenes serotype M1, UniProt P10520); assay: S. pyogenes streptokinase expression inhibitors, potency, dose response, plasminogen activation absorbance, OD405 (AID 1914); assay type: functional, Streptococcus pyogenes M1 GAS;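 note: secreted streptokinase activity via plasminogen activation per viability signal from cell pellet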
T2 sequence (P10520 whole entry): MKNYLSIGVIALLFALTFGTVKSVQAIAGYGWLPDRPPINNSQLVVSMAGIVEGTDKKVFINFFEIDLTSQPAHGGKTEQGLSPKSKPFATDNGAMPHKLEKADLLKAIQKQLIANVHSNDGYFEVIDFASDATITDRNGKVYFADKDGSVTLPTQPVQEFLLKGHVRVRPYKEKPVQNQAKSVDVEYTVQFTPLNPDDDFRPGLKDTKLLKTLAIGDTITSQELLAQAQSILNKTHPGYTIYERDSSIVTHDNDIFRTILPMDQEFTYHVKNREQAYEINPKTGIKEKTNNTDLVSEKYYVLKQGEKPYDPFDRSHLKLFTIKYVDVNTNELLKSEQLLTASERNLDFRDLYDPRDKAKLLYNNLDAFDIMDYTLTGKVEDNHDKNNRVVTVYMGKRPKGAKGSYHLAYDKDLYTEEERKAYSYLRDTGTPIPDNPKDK

[10] = test system: Streptococcus; assay: Group A Streptococcus viability loss, dose response, counter-screen for streptokinase expression inhibitor project, luminescence, BacTiterGlo (AID 1915); assay type: functional, organism-based;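 note: potency for reduction of bacterial viability or growth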
[11] = biological target: T3, Heat shock factor protein 1 (Mus musculus, UniProt P38532); assay: inhibition of MG132-induced HSE-luciferase signal, confirmation, cell-based, NIH3T3, luminescence, dose retest (AID 2382); assay type: functional;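 note: NIH3T3 fibroblasts with HSF1-driven luciferase reporter stressed by proteasome inhibitor MG132; luminescence from HSF1-driven luciferase expression after 8 hours of MG132 stress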
T3 sequence (P38532 whole entry): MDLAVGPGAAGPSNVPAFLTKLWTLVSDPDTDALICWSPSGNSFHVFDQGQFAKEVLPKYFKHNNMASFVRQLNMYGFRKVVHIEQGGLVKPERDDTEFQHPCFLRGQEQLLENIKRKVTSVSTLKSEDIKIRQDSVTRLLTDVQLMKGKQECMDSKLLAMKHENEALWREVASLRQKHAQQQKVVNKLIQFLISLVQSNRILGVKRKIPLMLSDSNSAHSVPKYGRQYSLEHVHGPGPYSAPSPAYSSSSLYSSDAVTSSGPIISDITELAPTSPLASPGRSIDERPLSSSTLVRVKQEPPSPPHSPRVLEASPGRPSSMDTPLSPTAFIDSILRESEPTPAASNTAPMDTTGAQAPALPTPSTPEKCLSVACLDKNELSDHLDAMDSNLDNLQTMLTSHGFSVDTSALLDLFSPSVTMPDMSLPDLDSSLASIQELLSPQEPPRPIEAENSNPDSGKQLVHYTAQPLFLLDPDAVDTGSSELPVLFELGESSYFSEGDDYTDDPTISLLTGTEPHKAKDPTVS

[12] = biological target: Glyceraldehyde-3-phosphate dehydrogenase (Homo sapiens, UniProt P04406)
[13] = biological target: Major prion protein (Homo sapiens, UniProt P04156); assay type: functional, cell-based
[14] = cells
[15] = biological target: T4, Cytochrome P450 1A2 (Homo sapiens, UniProt P05177);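 note: PubChem cytochrome P450 panel assay, CYP1A2 panel member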
T4 sequence (P05177 whole entry): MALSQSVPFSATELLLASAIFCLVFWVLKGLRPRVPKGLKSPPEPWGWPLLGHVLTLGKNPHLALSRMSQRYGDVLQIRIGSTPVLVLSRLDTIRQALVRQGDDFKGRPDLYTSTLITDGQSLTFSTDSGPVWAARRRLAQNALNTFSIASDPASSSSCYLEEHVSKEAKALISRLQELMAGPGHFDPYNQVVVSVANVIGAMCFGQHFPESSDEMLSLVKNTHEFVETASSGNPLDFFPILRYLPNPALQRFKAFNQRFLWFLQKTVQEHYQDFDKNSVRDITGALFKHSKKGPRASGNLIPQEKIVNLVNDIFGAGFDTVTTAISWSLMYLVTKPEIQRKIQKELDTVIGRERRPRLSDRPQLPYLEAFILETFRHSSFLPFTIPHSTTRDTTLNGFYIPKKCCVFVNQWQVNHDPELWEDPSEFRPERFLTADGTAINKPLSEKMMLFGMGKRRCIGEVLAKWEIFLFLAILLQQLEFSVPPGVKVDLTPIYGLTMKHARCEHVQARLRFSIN

[16] = biological target: T5, Estrogen receptor (Homo sapiens, UniProt P03372);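 note: potency for inhibiting coactivator peptide recruitment to the receptor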
T5 sequence (P03372 whole entry): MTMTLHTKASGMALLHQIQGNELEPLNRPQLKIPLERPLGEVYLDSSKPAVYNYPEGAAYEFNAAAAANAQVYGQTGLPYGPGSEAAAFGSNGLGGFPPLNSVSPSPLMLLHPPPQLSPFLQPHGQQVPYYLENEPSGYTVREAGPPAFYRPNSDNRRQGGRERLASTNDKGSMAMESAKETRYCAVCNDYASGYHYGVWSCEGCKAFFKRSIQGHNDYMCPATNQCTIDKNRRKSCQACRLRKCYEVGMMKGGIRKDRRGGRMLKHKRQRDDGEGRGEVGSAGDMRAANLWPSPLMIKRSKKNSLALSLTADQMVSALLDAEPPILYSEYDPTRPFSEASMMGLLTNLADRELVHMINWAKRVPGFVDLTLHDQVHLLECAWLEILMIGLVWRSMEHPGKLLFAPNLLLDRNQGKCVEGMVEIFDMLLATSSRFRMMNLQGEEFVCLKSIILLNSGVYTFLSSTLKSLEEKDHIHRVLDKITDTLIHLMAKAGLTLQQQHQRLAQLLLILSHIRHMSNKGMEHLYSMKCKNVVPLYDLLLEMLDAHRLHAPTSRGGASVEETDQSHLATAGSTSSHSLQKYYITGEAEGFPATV

[17] = inhibitors of intracellular T. cruzi replication, confirmation, NIH3T3 host cells, beta-gal luminescence (AID 2044); assay type: functional, cell-based;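 note: intracellular parasites grown in NIH/3T3 mouse fibroblasts as host cells; luminescent beta-galactosidase reporter signal from transgenic T. cruzi replicating inside host cells; inhibitors lower the luminescence signal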
[18] = cytotoxicity toward NIH3T3 fibroblasts, dose response, counter-screen, cell-based, ATP luminescence, mouse fibroblasts (AID 2010); assay type: functional;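 note: cells exposed to compound for about 90 hours before reading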
[19] = biological target: T6, Endoribonuclease toxin MazF (Escherichia coli K-12, UniProt P0AE70); assay: MazF toxin RNase activators, dose response, biochemical, fluorescence, single-stranded RNA substrate, uHTS hits (AID 588481); assay type: functional
T6 sequence (P0AE70 whole entry): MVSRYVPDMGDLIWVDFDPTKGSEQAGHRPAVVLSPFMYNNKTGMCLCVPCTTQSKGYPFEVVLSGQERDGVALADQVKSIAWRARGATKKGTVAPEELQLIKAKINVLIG

[20] = biological target: T6, Endoribonuclease toxin MazF; assay: fluorescent RNA oligo signal without MazF, dose response, counter-screen for MazEF activator project, biochemical, fluorescence, single-stranded RNase substrate (AID 588502); assay type: functional
[21] = THP-1 cell cytotoxicity, dose response, cytotoxicity control for Vif-APOBEC3G degradation inhibitor project, THP-1 cells (AID 1117359); assay type: functional; conditions: Human immunodeficiency virus 1, THP-1

CS(=O)(=O)c1cnc2c(-c3ccsc3)cnn2c1N
EC50 [1]: > 50 µM (active)

Cc1cc(O)c2ccccc2c1O [VITAMIN K3H2]
IC50 [2]: > 10 µM (inactive)
IC50 [3]: > 10 µM (inactive)

CCN(CC)CCCNC(=O)c1cc2c(Cl)nc3ccccc3c2s1
AC50 [4]: 1.58 µM (active)
AC50 [5]: 16.8 µM (active)

O=C(Cn1ccc([N+](=O)[O-])n1)N1CCCc2ccccc21
IC50 [6]: > 100 µM (active)

Cc1cc(C)c([C@@H]2C[C@H]3CN(C4CCCC4)C(=O)[C@]34CCCN24)c(-n2cccn2)c1
EC50 [1]: > 50 µM (active)

COc1ccc(-c2csc(Nc3ccc(S(=O)(=O)Nc4cc(C)on4)cc3)n2)cc1C
CC50 [7]: 8.8 µM (active)
EC50 [8]: 5.7 µM (active)
EC50 [9]: > 150 µM (not active)
EC50 [10]: 10.7 µM (active)
AC50 [5]: 11.9 µM (active)

COC(=O)COc1ccc2c(c1C)O/C(=C\c1ccco1)C2=O
EC50 [11]: > 195 µM (not active)
IC50 [6]: > 100 µM (active)

C=CC(=O)Nc1cc2c(Nc3ccc(F)c(Cl)c3)ncnc2cc1OCCCN1CCOCC1 [CANERTINIB]
IC50 [2]: 8.87 µM (inactive)
IC50 [3]: > 10 µM (inactive)

CC1(C)OC(=O)C(=Cc2ccc(I)o2)C(=O)O1
IC50 [12]: > 100 µM (not active)

CC(=O)NC(CSc1cc(C)nc2ccc(Br)cc12)C(=O)O (stereo unspecified)
IC50 [13]: 4.48 µM (active)
IC50 [14]: > 138 µM (inactive)

CCCc1nc(SCC(=O)NNC(=O)C2CCCCC2)c2ccccc2n1
IC50 [13]: 0.896 µM (active)
AC50 [15]: 15.8 µM (inconclusive)
IC50 [14]: > 138 µM (inactive)

O=C(Cc1cn2ccsc2n1)OCc1nc2ccccc2s1
IC50 [16]: 6.98 µM (active)

NCCc1c(C(=O)O)[nH]c2ccc(S(N)(=O)=O)cc12
IC50 [12]: > 100 µM (not active)

CC(=O)Nc1ccc2nc(C)cc(O)c2c1
IC50 [16]: 21 µM (active)

CCC(C)(C)NC(=O)COc1ccc(C(=O)c2ccccc2)cc1
EC50 [1]: > 50 µM (active)

Cc1c(Br)c(=O)oc2cc(OCC(=O)N3C[C@H]4C[C@@H](C3)c3cccc(=O)n3C4)ccc12
IC50 [13]: 8.34 µM (active)
IC50 [14]: > 138 µM (inactive)

NC(=O)C1(N2CCCCC2)CCN(c2nc(-c3ccc(Br)cc3)cs2)CC1
IC50 [16]: 37.8 µM (not active)
EC50 [17]: 1.78 µM (active)
EC50 [18]: > 60 µM (inconclusive)

Cc1c(Br)cc(C(=O)NCc2ccco2)c(C)c1C
IC50 [16]: > 50 µM (not active)

Cc1oc(C)c2c(=O)ccc3c(c12)OC(N)=C(C#N)C3c1ccccc1 (stereo unspecified)
EC50 [19]: > 99 µM (inactive)
EC50 [20]: > 99 µM (inactive)
CC50 [21]: > 40 µM (active)
IC50 [6]: > 52.5 µM (active)
